Results on 1 compound are retold here after patent US20180168161A1, “MICROPROPAGATION OF BLACK COHOSH” (North Carolina Agricultural and Technical State University, priority 2016, published 2018).

The experiment has as its system black cohosh plantlets. Kind of experiment: Rooting of black cohosh cultures and growth of the micropropagated plantlets in soil. It is filed as in vivo, Cimicifuga racemosa/Actaea racemose L. The following applies: rooting 4 weeks, 60% shade. On the procedure:
All cultures described herein were transferred onto fresh media every 4 weeks. When indicated as such, the cultures were maintained in a plant tissue culture grade growth chamber under a 16-hour photoperiod (e.g. 16 hours of light per a 24 hour period) with a photo flux density of 37.6±4.8 μmol s^−1m^−2 light per day provided by cool white fluorescent tubes at 23±0.1° C., unless otherwise noted. As employed herein, MS supplemented base medium is at a pH of between about 5.4 and 5.8, supplemented with about 0.7% agar and about 3% sucrose, optionally with one or more plant growth regulators as disclosed herein. The pH of the medium is adjusted with a base, such as 1N KOH, and/or an acid, such as 1N HCl, before the agar is added. The supplemented medium is sterilized by autoclaving at about 120° C. and about 106 kPa for about 20 minutes. A first half of the cultures from Example 1B were moved to fresh MS supplemented base medium containing IBA (1.0 mg/1) and kept in a growth chamber under 16 hours light conditions per day for 4 weeks for rooting of the plantlets. See also the bottom row of FIG. 1, which refers to rooting for 4 weeks. […] A second half of the cultures from Example 1B were moved to fresh MS supplemented base medium containing NAA (0.1 mg/1) and kept in a growth chamber under 16 hours light conditions per day for 4 weeks for rooting of the plantlets. […]

Molecules are shown by their SMILES.

In the case of `O=C(O)CCCc1c[nH]c2ccccc12` [IBA, indole-3-butyric acid], the “plantlet growth in soil after rooting” value reads like this: (shoots proliferated in BA+NAA (Example 1B)) “grew vigorously with normal morphology”; (shoots proliferated in kinetin+NAA (Example 1C)) “grew vigorously”.
